Source: patent US8778871B2 (Takeda Pharmaceutical Company Limited, priority 2004, dated 2014)
Non-standard residues stand in square brackets, D forms with d. Residues, ends and D or L forms follow the SMILES beside them. Phe(4-F) = N[C@@H](Cc1ccc(F)cc1)C(=O)O; Arg(Me) = CNC(=N)NCCC[C@H](N)C(=O)O; Lys(Me2) = CN(C)CCCC[C@H](N)C(=O)O; 4Pal = N[C@@H](Cc1ccncc1)C(=O)O; d4Pal = N[C@H](Cc1ccncc1)C(=O)O; Cha = N[C@@H](CC1CCCCC1)C(=O)O; azaGly = NNC(=O)O

biological target: T1, hOT7T175 (Homo sapiens, UniProt Q969F8); assay: Intracellular Ca ion level-increasing activity using FLIPR (180 seconds; specific activity to Metastin (1-54)); type: cell-based; details: hOT7T175/CHO, change in intracellular calcium ion level for 180 seconds, Tables 21-23
T1 construct: expressed in transfected cells
Method: In accordance with the method described in JPA 2000-312590, the intracellular Ca ion level-increasing activity was measured using FLIPR. […]
The intracellular Ca ion level-increasing activity of the synthetic peptide in hOT7T175/CHO was determined using FLIPR (Molecular Devices, Inc.).
hOT7T175/CHO was subcultured in DMEM supplemented with 10% dialyzed fetal bovine serum (hereinafter abbreviated as dFBS) and provided for the experiment (hereinafter abbreviated as 10% dFBS/DMEM). The hOT7T175/CHO was suspended in 10% dFBS-DMEM in 15×10^4 cells/ml. The suspension was inoculated on a 96-well plate for FLIPR (Black Plate Clear Bottom, Coster, Inc.) at 200 μl each (3.0×10^4 cells/200 μl), followed by incubation at 37° C. overnight in a 5% CO2 incubator. The cells thus incubated were used (hereinafter simply referred to as the cell plate). Then, 21 ml of HANKS/HBSS (9.8 g of HANKS', 0.35 g of sodium hydrogencarbonate, 20 ml of 1M HEPES; after adjusting the pH to 7.4 with 1N sodium hydroxide, the mixture was subjected to sterilization through a filter), 210 μl of […] Probenecid and 210 μl of fetal bovine serum (FBS) were mixed (HANKS/HBSS-Probenecid-FBS).
Furthermore, 2 vials of Fluo3-AM (50 μg/vial) were dissolved in 21 μL of dimethylsulfoxide and 21 μL of 20% Pluronic acid. The resulting solution was added to and mixed with 10 ml of HANKS/HBSS-Probenecid-FBS described above. After the culture medium was removed, the mixture was dispensed onto the cell plate in 100 μl each/well, followed by incubation at 37° C. for an hour in a 5% CO2 incubator (pigment loading). The peptide was dissolved in dimethylsulfoxide in 1×10^−3 M. The peptide solution was diluted with HANKS'/HBSS containing 2.5 mM Probenecid and 0.2% BSA. The dilution was transferred to a 96-well plate for FLIPR (V-Bottom plate, Coster, Inc.) (hereinafter referred to as a sample plate). After completion of the pigment loading onto the cell plate, the cell plate washed 4 times with wash buffer, which was obtained by adding 2.5 mM Probenecid to HANKS'/HBSS, using a plate washer to leave 100 μL of wash buffer after the washing. The cell plate and the sample plate were set in FLIPR and 0.05 ml of a sample from the sample plate was automatically transferred to the cell plate with the FLIPR device to promote the cell response. A change in intracellular calcium ion level for 180 seconds was measured with passage of time.

T1 sequence (Q969F8 whole entry L364H): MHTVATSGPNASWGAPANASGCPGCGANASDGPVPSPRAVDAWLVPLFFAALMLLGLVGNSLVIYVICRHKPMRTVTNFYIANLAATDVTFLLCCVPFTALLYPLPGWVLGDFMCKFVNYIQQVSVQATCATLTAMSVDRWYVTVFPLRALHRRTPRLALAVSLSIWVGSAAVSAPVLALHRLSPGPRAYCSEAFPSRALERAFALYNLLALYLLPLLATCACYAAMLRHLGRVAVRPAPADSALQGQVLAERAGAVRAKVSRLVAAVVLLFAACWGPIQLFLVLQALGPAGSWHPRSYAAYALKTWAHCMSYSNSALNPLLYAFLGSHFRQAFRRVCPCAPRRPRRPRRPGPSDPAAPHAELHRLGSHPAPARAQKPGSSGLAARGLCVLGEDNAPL

Compound | intracellular Ca ion level-increasing activity [specific activity to Metastin (1-54)]
CNC(=N)NCCC[C@H](NC(=O)[C@H](CC(C)C)NC(=O)NNC(=O)[C@H](Cc1ccccc1)NC(=O)[C@H](CO)NC(=O)[C@H](CC(N)=O)NC(=O)[C@@H](NC(=O)[C@@H](CC(N)=O)NC(=O)[C@H](N)Cc1ccc(O)cc1)[C@@H](C)O)C(=O)N[C@@H](Cc1ccc(F)cc1)C(N)=O [Compound No. 316, D-Tyr-D-Asn-Thr-Asn-Ser-Phe-AzaGly-Leu-Arg(Me)-Phe(4F)-NH2] (H-[dY][dN]TNSF[azaGly]L[Arg(Me)][Phe(4-F)]-NH2) | 1
3-(3-Indolyl)propionyl-Phe-Gly-Leu-Arg-Phe-NH2 [Compound No. 352] | ⅓
CNC(=N)NCCC[C@H](NC(=O)[C@H](CC(C)C)NC(=O)NNC(=O)[C@H](Cc1ccccc1)NC(=O)[C@H](CO)NC(=O)[C@H](CC(N)=O)NC(=O)[C@H](Cc1c[nH]c2ccccc12)NC(=O)[C@@H](CO)NC(=O)[C@H](N)Cc1ccc(O)cc1)C(=O)N[C@@H](Cc1ccccc1)C(N)=O [Compound No. 287, D-Tyr-D-Ser-Trp-Asn-Ser-Phe-AzaGly-Leu-Arg(Me)-Phe-NH2] (H-[dY][dS]WNSF[azaGly]L[Arg(Me)]F-NH2) | 2
Indole-3-carbonyl-Phe-AzaGly-Leu-Arg(Me)-Phe-NH2 [Compound No. 344] | ½
Benzoyl-Pya(4)-AzaGly-Leu-Arg(Me)-Trp-NH2 [Compound No. 442] | ½
Benzylphenethylcarbamoyl-AzaGly-Leu-Arg(Me)-Trp-NH2 [Compound No. 417] | 1
2-Azetidinecarbonyl-Phe-AzaGly-Leu-Arg(Me)-Trp-NH2 [Compound No. 466] | ⅓
2-(Indol-3-yl)ethylcarbamoyl-Phe-AzaGly-Leu-Arg(Me)-Phe-NH2 [Compound No. 364] | 1
4-Pyridinecarbonyl-Phe-AzaGly-Leu-Orn-Trp-NH2 [Compound No. 477] | ⅕
(R)-3-hydroxy-2-methylpropionyl-Phe-AzaGly-Leu-Arg(Me)-Trp-NH2 [Compound No. 452] | 1
CNC(=N)NCCC[C@H](NC(=O)[C@H](CC(C)C)NC(=O)NNC(=O)[C@H](Cc1ccccc1)NC(=O)[C@H](Cc1ccccc1)NC(=O)[C@H](CO)NC(=O)[C@H](CC(N)=O)NC(=O)[C@H](Cc1ccccc1)NC(=O)[C@H](CC(N)=O)NC(=O)[C@H](N)Cc1ccc(O)cc1)C(=O)N[C@@H](Cc1ccccc1)C(N)=O [Compound No. 270, D-Tyr-Asn-Phe-Asn-Ser-Phe-Phe-AzaGly-Leu-Arg(Me)-Phe-NH2] (H-[dY]NFNSFF[azaGly]L[Arg(Me)]F-NH2) | 1
D-Tyr-D-Pya(4)-Asn-Ser-Phe-AzaGly-Leu-Lys-Phe-NH2 [Compound No. 487] | 1
3-Pyridinecarbonyl-Phe-AzaGly-Leu-Arg(Me)-Trp-NH2 [Compound No. 432] | 2
Dibenzylaminocarbamoyl-AzaGly-Leu-Arg(Me)-Trp-NH2 [Compound No. 428] | 1/10
CNC(=N)NCCC[C@H](NC(=O)[C@H](CC(C)C)NC(=O)NNC(=O)[C@H](Cc1ccccc1)NC(=O)[C@H](CO)NC(=O)[C@H](CC(N)=O)NC(=O)[C@@H](Cc1ccncc1)NC(=O)[C@H](CC(N)=O)NC(=O)[C@H](N)Cc1ccc(O)cc1)C(=O)N[C@@H](Cc1ccccc1)C(N)=O [Compound No. 302, D-Tyr-Asn-D-Pya(4)-Asn-Ser-Phe-AzaGly-Leu-Arg(Me)-Phe-NH2] (H-[dY]N[d4Pal]NSF[azaGly]L[Arg(Me)]F-NH2) | 2
6-Hydroxynicotinoyl-Phe-AzaGly-Leu-Arg(Me)-Trp-NH2 [Compound No. 462] | 1
Benzoyl-Pya(2)-AzaGly-Leu-Arg(Me)-Trp-NH2 [Compound No. 441] | 1
CNC(=N)NCCC[C@H](NC(=O)[C@H](CC(C)C)NC(=O)NNC(=O)[C@H](Cc1ccccc1)NC(=O)[C@H](CO)NC(=O)[C@H](CC(N)=O)NC(=O)[C@H](Cc1ccncc1)NC(=O)[C@H](CC(N)=O)NC(=O)[C@H](N)Cc1ccc(O)cc1)C(=O)N[C@@H](Cc1ccccc1)C(N)=O [Compound No. 286, D-Tyr-Asn-Pya(4)-Asn-Ser-Phe-AzaGly-Leu-Arg(Me)-Phe-NH2] (H-[dY]N[4Pal]NSF[azaGly]L[Arg(Me)]F-NH2) | 2
D-Tyr-D-Pya(4)-Asn-Ser-Phe-AzaGly-Leu-Orn-Phe-NH2 [Compound No. 486] | ½

biological target: T2, hOT7T175 (Homo sapiens, UniProt Q969F8, L364H); assay: not given; type: cell-based; details: hOT7T175/CHO, FLIPR, evaluation for 40 seconds after initiation of the reaction
T2 construct: expressed in transfected cells
T2 sequence (Q969F8 whole entry L364H): as above

Compound | Specific Act. (EC50/MS10 EC50)
Ac-D-Tyr-D-Trp-Asn-Thr-Phe-AzaGly-Gln-Arg(Me)-Trp-NH2 (Ac-[dY][dW]NTF[azaGly]Q[Arg(Me)]W-NH2; SMILES CNC(=N)NCCC[C@H](NC(=O)[C@H](CCC(N)=O)NC(=O)NNC(=O)[C@H](Cc1ccccc1)NC(=O)[C@@H](NC(=O)[C@H](CC(N)=O)NC(=O)[C@@H](Cc1c[nH]c2ccccc12)NC(=O)[C@@H](Cc1ccc(O)cc1)NC(C)=O)[C@@H](C)O)C(=O)N[C@@H](Cc1c[nH]c2ccccc12)C(N)=O) [Compound No. 682] | 7.3
Ac-[dY][dW]NS(Me)F[azaGly]L[Arg(Me)]W-NH2 [Compound No. 580] | 0.6
Ac-D-Tyr-D-Trp-Asn-Thr-PheΨ(CH2NH)Gly-Leu-Arg(Me)-Trp-NH2 [Compound No. 569] | 0.5
Ac-[dY][dW]NT[Cha][azaGly]L[Arg(Me)]W-NH2 [Compound No. 696] | 0.5
Ac-[dY][dW]TSF[azaGly]L[Arg(Me)]W-NH2 [Compound No. 578] | 0.8
Ac-[dY][dW]SSF[azaGly]L[Arg(Me)]W-NH2 [Compound No. 577] | 0.7
Ac-[dY][dW]NTF[azaGly]L[Lys(Me2)]W-NH2 [Compound No. 610] | 1.9
Ac-[dY][dW]NTF[azaGly]LKW-NH2 [Compound No. 639] | 2
Ac-[dY][dW]NTK[azaGly]L[Arg(Me)]W-NH2 [Compound No. 633] | 3.4
CC[C@H](C)[C@H](NC(=O)[C@H](N)Cc1ccc(O)cc1)C(=O)N[C@@H](CC(N)=O)C(=O)N[C@@H](CO)C(=O)N[C@@H](Cc1ccccc1)C(=O)NNC(=O)N[C@@H](CC(C)C)C(=O)N[C@@H](CCCNC(=N)NC)C(=O)N[C@@H](Cc1ccccc1)C(N)=O [Compound No. 240, D-Tyr-Ile-Asn-Ser-Phe-AzaGly-Leu-Arg(Me)-Phe-NH2] (H-[dY]INSF[azaGly]L[Arg(Me)]F-NH2) | 4.9
Ac-[dY][dW]NTF[azaGly]A[Arg(Me)]W-NH2 [Compound No. 641] | 3.5
3-Phenylpropionyl-Asn-Pic(2)-Phe-AzaGly-Leu-Arg(Me)-Trp-NH2 [Compound No. 531] | 1.8
